The values that follow come from patent publication US7026137B2, “Hepatitis” (Chang Gung University, priority 2003, dated 2006).

For data set [1] the following is noted: cited from earlier work.
Data set [2] relates to HCV in 293EBNA-Sip-L cells. Nature of the data set: HCV replication in HCV-infected 293EBNA-Sip-L cell line (intracellular HCV-RNA, nested RT-PCR). The note with it: day 2 to day 7 after infection, RT-PCR sensitivity <10^2 copy per 10^5 cells, untreated cells 2.31×10^5 per 10^5 cells. The format is cell-based, hepatitis C virus. The procedure:
To verify the ability of sodium stibogluconate to inhibit HCV replication, a 293EBNA-Sip-L cell line was used. This cell line, permissive for HCV infection and replication, had been established by expressing a cellular factor, Sip-L, in 293EBNA cells (Yeh et al., J. Virol. 75 (2001) 11017–11024). This cell line was maintained in a Dulbecco's modified Eagle's medium containing 10% fetal bovine serum, 250 μg/ml G418, and 150 μg/ml hygromycin B. The cells were infected with HCV. Briefly, cells in a 60-mm-diameter petri dish were incubated with a medium containing 5 μl of HCV-positive serum (10^7 copies of HCV-RNA/ml) for 12 hr. The cells were then incubated in a fresh medium without the serum.
At the second day after the HCV infection, 293EBNA-Sip-L cells were incubated with media containing 0, 1, 10, and 100 μg/ml of sodium stibogluconate, respectively. At the seventh day, the cells were harvested to determine the intracellular level of HCV-RNA. The cells were trypsinized and washed two times with a fresh medium by centrifugation. The supernatant of the second wash (as a contamination control) and the washed cells were collected in pairs for RNA extraction and nested RT-PCR. A digoxigenin-labeled probe was used for the subsequent Southern blot analysis. The sequences of the primers, the method for generating the probe, and the procedure for RT-PCR were described in Yeh et al., J. Virol. 75 (2001) 11017–11024. An amplified HCV fragment was cloned into pCR2.1-TOPO (Invitrogen, Carlsbad, Calif.) to generate a plasmid, pTOPO-HCV5n, which served as a positive control in Southern blot analysis. As internal controls, the levels of 18s and 28s RNAs were measured.

For the next data set, the system named is hepatitis C virus (HCV). Nature of the data set: HCV replication (HCV-RNA level by RT-PCR) in human liver slices from hepatitis C patients. In kind it is cell-based. The note with it: for suppression of HCV replication in liver slices: 3 days. How it is done: Liver slices were prepared from liver tissues of the patients. To obtain the livers tissues, biopsy was performed using Bard Biopty-Cut biopsy needles (C. R. Bard, Inc. Covington, Ga.) with a diameter of 1.2 mm (18 gauge). Two equal-sized slices, 1 mm in thickness, were separated from each tissue. The remaining portion (main portion) of each tissue was subjected to pathological examination. The liver slices were incubated in a 24-well culture plate containing 2 ml of minimal essential medium-20% fetal bovine serum and fed with fresh medium daily.
To evaluate whether it suppresses the authentic HCV replication in liver slices, the liver slices from patients S10-1 to S10-6 and S00-1 to S00-6 were incubated with 0, 10, and 100 μg/ml of sodium stibogluconate (Wuhan Shengmao Corp., Hubei, China), respectively, 24 hrs after the slices had been cultured in vitro. The slices from patient S10-5 served as a negative control. Three days later (i.e., 96 hr after the slices were cultured), the level of HCV RNA in each slice was measured.
To detect the HCV-RNA level, one step RT-PCR (not nested) was performed in the manner described in Yeh et al., J. Gen. Virol. 78 (1997) 2761–2770. As a control, β-actin mRNA was measured simultaneously. 20 PCR cycles were performed, in which the amounts of the PCR products had not yet reached to a plateau. The primers used were described in Yeh et al., Oncogene 19 (2000) 5213–5220. […] Methods 65 (1997) 219–226. HCV genotypes were determined using Inno-Lipa HCV II kit (Innogenetics, Zwijndrecht, Belgium).
The responsiveness of patients to Interferon-alpha, a drug currently being used to treat hepatitis C, was evaluated using liver slices. Liver slices prepared from patients INF-1 to 6 were incubated with 5000 U/ml of interferon-alpha2b (Schering-Plough Corp., Kenilworth, N.J. Slices from patient IFN-6, who was infected by hepatitis B virus, were used as negative controls.
The slices form patient […] served as negative controls.

The next data set concerns HCV replicon. The data set can be described thus: HCV subgenomic RNA replicon system (Ava5). The format is cell-based, hepatitis C virus. In general terms: Replicon systems follow genome replication, usually without infectious particles.
The subject of another data set is hepatitis C. The note with it: cited from earlier work.
Data set [3] has as its system hepatocytes in human liver slices. The data set can be described thus: Viability of hepatocytes in human liver slices (intracellular AST). The note with it: 96 hrs after the culture; Group V liver slices; without drug 57%; no significant difference between samples. In kind it is cell-based. The procedure: To determine whether sodium stibogluconate or interferon-alpha 2b protects hepatocytes in human liver slices, the viability of hepatocytes in human liver slices incubated with the drugs was examined. As HCV replication causes the death of hepatocytes, intracellular aspartate aminotransferase (AST) leaks out. The intracellular level of AST therefore positively correlates with the cell viability.
Liver slices prepared from the patients in Group V were treated with sodium stibogluconate or interferon-alpha 2b in the manner described above. The AST activity in the medium was determined using a standard technique 48, 72, and 96 hrs after the slices had been cultured in vitro. The AST activities in a fresh medium and in the liver slices 96 hrs after incubation were also measured. For this purpose, the slices were homogenized using a mini-homogenizer (Pellet Pestles, Kimble Deltaware, Vineland, N.J). The percentages of AST leaked out to the medium and remained in the liver slices were calculated accordingly.

Regarding `O.O.O.O.O.O.O.O.O.O=C([O-])[C@@H]1[O][Sb]2([O-])([O][Sb]34([OH])[O][C@H]([C@H](O)CO)[C@H]([O]3)[C@H](C(=O)[O-])[O]4)[O][C@H]([C@H](O)CO)[C@@H]1[O]2.[Na+].[Na+].[Na+]` [sodium stibogluconate], the “estimated blood concentration immediately after injection” value in data set [1] (daily dose of 20 mg/kg as used in treating kala-azar) is listed as “about 400 μg/ml”. In addition, the “blood concentration needed for treating kala-azar” value in data set [1] (in vivo) is 400 µg/mL. In addition, the “intracellular HCV-RNA” value in data set [2] (1 μg/ml), in data set [2] (10 μg/ml) and in data set [2] (100 μg/ml) was “none was detected” each time. The “suppression of HCV replication in liver slices” value is given as “not” in the data set with hepatitis C virus (HCV) (10 μg/ml, slices from patient S10-3); “partially suppressed” in the data set on hepatitis C virus (HCV) (10 μg/ml, slices from patients S10-1, S10-2, S10-4 and S10-6); “almost completely suppressed” with hepatitis C virus (HCV) (100 μg/ml, slices from patients S00-1, S00-2, S00-3 and S00-5); “not” in the data set on hepatitis C virus (HCV) (100 μg/ml, slices from patients S00-4 and S00-6). For the same compound, the “suppression of replication of an HCV replicon” value in the data set on HCV replicon was “capable of suppressing”.

Take interferon-alpha 2b: the “hepatitis C patients responsive to the treatment” value in the data set on hepatitis C is on record as “about 50%”. The “intracellular AST level” value in data set [3] amounted to 83%. The “suppression of HCV-RNA levels in liver slices” value is on record as “no suppression” in the data set on hepatitis C virus (HCV) (5000 U/ml, slices from patient IFN-2); “Partial suppression” with hepatitis C virus (HCV) (5000 U/ml, slices from patient IFN-5); “suppressed to undetectable levels” with hepatitis C virus (HCV) (5000 U/ml, slices from patients IFN-1, 3 and 4); “No suppression” in the data set with hepatitis C virus (HCV) (interferon heated to 90° C. for 10 min (inactivated) before incubation, slices from patients iIF-1 to 6).
